Experimental data from ChEMBL document CHEMBL1201862, “PubChem BioAssay data set” (2004).
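All cell lines were grown in 96-well plates and treated with compound for 48 hours. GI50 marks 50% less growth.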 Active and inactive are the calls of the source. No stated cut-off is given here; in the data, active = GI50 up to about 1.1 µM and inactive = higher.

Key:
Assay in all cases: DTP human tumour cell line panel, 48 h
RXF 393 = system: RXF 393
Hs-578T = system: Hs-578T
MDA-MB-231 = system: MDA-MB-231
OVCAR-5 = system: OVCAR-5
DU-145 = system: DU-145
MOLT-4 = system: MOLT-4
UACC-257 = system: UACC-257
OVCAR-4 = system: OVCAR-4
K562 = system: K562
MDA-MB-435 = system: MDA-MB-435
KM12 = system: KM12
TK-10 = system: TK-10
PC-3 = system: PC-3
NCI-H23 = system: NCI-H23
OVCAR-3 = system: OVCAR-3
SK-MEL-2 = system: SK-MEL-2
MCF7 = system: MCF7
CAKI-1 = system: CAKI-1
IGROV-1 = system: IGROV-1
EKVX = system: EKVX
M14 = system: M14
HCT-15 = system: HCT-15
BT-549 = system: BT-549
UACC-62 = system: UACC-62
OVCAR-8 = system: OVCAR-8
ACHN = system: ACHN
COLO 205 = system: COLO 205
SK-OV-3 = system: SK-OV-3
RPMI-8226 = system: RPMI-8226
786-0 = system: 786-0
SNB-75 = system: SNB-75
SNB-19 = system: SNB-19
NCI/ADR-RES = system: NCI/ADR-RES
NCI-H522 = system: NCI-H522
HOP-92 = system: HOP-92
HT-29 = system: HT-29
SF-295 = system: SF-295
Malme-3M = system: Malme-3M
HCT-116 = system: HCT-116
MDA-N = system: MDA-N
HCC 2998 = system: HCC 2998
UO-31 = system: UO-31
SF-268 = system: SF-268
A549 = system: A549
NCI-H460 = system: NCI-H460
SK-MEL-5 = system: SK-MEL-5
A498 = system: A498
SK-MEL-28 = system: SK-MEL-28
U-251 = system: U-251
HOP-62 = system: HOP-62

COc1ccc(/N=[N+](\[O-])c2ccc(OC)cc2)cc1
GI50 (RXF 393): > 100 µM (inactive) | GI50 (Hs-578T): > 100 µM (inactive) | GI50 (MDA-MB-231): > 100 µM (inactive) | GI50 (OVCAR-5): > 100 µM (inactive) | GI50 (DU-145): > 100 µM (inactive) | GI50 (MOLT-4): > 100 µM (inactive) | GI50 (UACC-257): > 100 µM (inactive) | GI50 (OVCAR-4): > 100 µM (inactive) | GI50 (K562): > 100 µM (inactive) | GI50 (MDA-MB-435): > 100 µM (inactive) | GI50 (KM12): > 100 µM (inactive) | GI50 (TK-10): > 100 µM (inactive) | GI50 (PC-3): > 100 µM (inactive) | GI50 (NCI-H23): > 100 µM (inactive) | GI50 (OVCAR-3): > 100 µM (inactive) | GI50 (SK-MEL-2): > 100 µM (inactive) | GI50 (MCF7): > 100 µM (inactive) | GI50 (CAKI-1): > 100 µM (inactive) | GI50 (IGROV-1): > 100 µM (inactive) | GI50 (EKVX): > 100 µM (inactive) | GI50 (M14): > 100 µM (inactive) | GI50 (HCT-15): > 100 µM | GI50 (BT-549): > 100 µM (inactive) | GI50 (UACC-62): > 100 µM (inactive) | GI50 (OVCAR-8): > 100 µM (inactive) | GI50 (ACHN): > 100 µM (inactive) | GI50 (COLO 205): > 100 µM (inactive) | GI50 (SK-OV-3): > 100 µM (inactive) | GI50 (RPMI-8226): > 100 µM (inactive) | GI50 (786-0): > 100 µM (inactive) | GI50 (SNB-75): > 100 µM (inactive) | GI50 (SNB-19): > 100 µM (inactive) | GI50 (NCI/ADR-RES): > 100 µM (inactive) | GI50 (NCI-H522): 79.8 µM (inactive) | GI50 (HOP-92): > 100 µM (inactive) | GI50 (HT-29): > 100 µM (inactive) | GI50 (SF-295): > 100 µM (inactive) | GI50 (Malme-3M): > 100 µM (inactive) | GI50 (HCT-116): > 100 µM (inactive) | GI50 (MDA-N): > 100 µM (inactive) | GI50 (HCC 2998): > 100 µM (inactive) | GI50 (UO-31): > 100 µM (inactive) | GI50 (SF-268): > 100 µM (inactive) | GI50 (A549): > 100 µM (inactive) | GI50 (NCI-H460): > 100 µM (inactive) | GI50 (SK-MEL-5): > 100 µM (inactive) | GI50 (A498): > 100 µM (inactive) | GI50 (SK-MEL-28): > 100 µM (inactive) | GI50 (U-251): > 100 µM (inactive) | GI50 (HOP-62): > 100 µM (inactive)
